Reference: PubChem BioAssay AID2060491 (Molecular Pharmacology Branch, DTP, NCI, 2025)

Tested on: 857933-349-R-J2-PDC complex spheroids, viability
Assay: Anticancer human tumor 857933-349-R-J2-PDC patient-derived colon adenocarcinoma cell line growth inhibition [GQUAD]
Settings: for IC50: curve of first compound; for viability, T/C: stronger effect = lower value
Excerpt: DNA G-quadruplex Stabilizer Agents in Combinations in Complex Spheroids
A high-throughput screen of multi-cell type tumor spheroids was designed to identify active combinations of DNA G-quadruplex stabilizer agents and targeted small molecules. Complex spheroids include a stromal component modeled by human endothelial cells (HUVEC) and fibroblasts modeled by human mesenchymal stem cells (MSCs). The concentration ranges selected for each drug and investigational agent were based upon clinically achievable concentrations if the clinical Cmax of the agent was known.
Compounds. The drugs and investigational agents: pidnarulex (CX-5461; NSC782164), APTO-253 (NSC789042), BRACO-19 (NSC847499), peposertib (NSC802822), ceralasertib (NSC780249), elimusertib (NSC800525), camonsertib (NSC841442), AZD-1390 (NSC803789), olaparib (NSC753686), talazoparib (NSC767125), ART-558 (NSC835418), sotorasib (NSC818433), MRTX-1133 (NSC836407), SN-38 (NSC673596), topotecan (NSC609699), etoposide (NSC141540), doxorubicin (NSC123127), gemcitabine (NSC613327), 5-fluorouracil (NSC19893), paclitaxel (NSC125973), vemurafenib (NSC761431), panobinostat (NSC761190), R-306465 (JNJ-16241199; NSC773264), adavosertib (NSC754352), TP-3654 (NSC805149), carboplatin (NSC241240), KSQ-4279 (NSC840948), and staurosporine (NSC755774) were obtained from the National Cancer Institute (NCI) Developmental Therapeutics Program Chemical Repository (34). The FDA-approved anticancer drug set is available from the NCI Developmental Therapeutics Program. […] The stock solutions were prepared in dimethyl sulfoxide (DMSO, Sigma-Aldrich, St. Louis, MO, cat. D2650) at 800-fold the tested concentration and stored at -70 degrees C prior to their use. All drugs and investigational agents were tested over a range starting from a high concentration at or near the clinical Cmax and decreasing in half-log increments. If the clinical Cmax for an agent had not been determined, the highest concentration tested was 10 microM.
2.3 Cell Culture. All cells were maintained in an incubator at 37 degrees C and 5% CO2 with 95% humidity. The PDC lines were cultured according to standard operating procedures established by the NCI PDMR. All PDCs were thawed and cultured in Matrigel-coated flasks prepared with a working solution of 1X Ham's F-12 nutrient mix, without supplementation (Invitrogen, cat. 11765054), 100 U/mL penicillin-streptomycin (Invitrogen, cat. 15140122), and 2.5% Matrigel (Corning Inc., cat. 354248) for the first three passages. The 857933-349-R-J2-PDC line was cultured in 6C/Colon 1B media, which includes advanced DMEM/F-12 (Thermo Fisher Scientific, cat. 12634028), 10 mM HEPES (Thermo Fisher Scientific, cat. 15630080), 1X GlutaMAX supplement (Thermo Fisher Scientific, cat. 35050061), 0.1 mg/mL primocin (InvivoGen, cat. ant-pm-2), 10% defined fetal bovine serum, heat inactivated (HyClone Laboratories Inc., cat. SH30070.03HI), 50% L-WRN conditioned media (ATCC, cat. CRL-3276), 1.25 mM N-Acetyl-L-cysteine (Sigma-Aldrich, cat. A9165), 10 mM nicotinamide (Sigma-Aldrich, cat. N0636), 1X B-27 supplement (Thermo Fisher Scientific, cat. 17504044), 1X N-2 supplement (Thermo Fisher Scientific, cat. 17502048), 10 microM Y-27632 dihydrochloride (Tocris Bioscience, cat. 1254), and 50 ng/mL human EGF recombinant protein (Thermo Fisher Scientific, cat. PHG0311). The 485176-168-R4-J1-PDC line was cultured in Panc media, which includes all 6C/Colon 1B media components plus 100 ng/mL human FGF-10 (Thermo Fisher Scientific, cat. 100-26), 500 nM SB-431542 (Selleckchem, cat. S1067), and gastrin (Tocris, cat. 3006).
[…]

[1] = second compound 0.0316 µM, first compound 0.0316 µM
[2] = second compound 0.0316 µM, first compound 0.316 µM
[3] = second compound 0.1 µM, first compound 0.0316 µM
[4] = second compound 0.1 µM, first compound 0.316 µM
[5] = second compound 0.316 µM, first compound 0.0316 µM
[6] = second compound 0.316 µM, first compound 0.316 µM
[7] = second compound 1 µM, first compound 0.0316 µM
[8] = second compound 1 µM, first compound 0.316 µM
[9] = second compound 3.16 µM, first compound 0.0316 µM
[10] = second compound 3.16 µM, first compound 0.316 µM
[11] = second compound 10 µM, first compound 0.0316 µM
[12] = second compound 10 µM, first compound 0.316 µM
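Note: spheroids exposed to compounds for one week before readout.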
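Throughout, for viability, T/C: percent viability relative to vehicle DMSO wells taken as 100%.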

Which results are given for `Cn1ncnc1[C@H]1c2n[nH]c(=O)c3cc(F)cc(c23)N[C@@H]1c1ccc(F)cc1` + Cc1cnc(CNC(=O)c2c(=O)c3ccc(N4CCCN(C)CC4)nc3n3c2sc2ccccc23)cn1?
IC50 (second compound 0.0316 µM): > 0.316 µM; IC50 (second compound 0.1 µM): > 0.316 µM; IC50 (second compound 0.316 µM): < 0.000999 µM; IC50 (second compound 1 µM): < 0.000999 µM; IC50 (second compound 3.16 µM): < 0.000999 µM; IC50 (second compound 10 µM): < 0.000999 µM; viability, T/C (second compound 0.0316 µM, first compound 0.000999 µM): 88.5%; viability, T/C (second compound 0.0316 µM, first compound 0.00316 µM): 89.1%; viability, T/C (second compound 0.0316 µM, first compound 0.00999 µM): 93.4%; viability, T/C [1]: 95%; viability, T/C (second compound 0.0316 µM, first compound 0.0999 µM): 88.9%; viability, T/C [2]: 81.7%; viability, T/C (second compound 0.1 µM, first compound 0.000999 µM): 59.6%; viability, T/C (second compound 0.1 µM, first compound 0.00316 µM): 73.6%; viability, T/C (second compound 0.1 µM, first compound 0.00999 µM): 62.5%; viability, T/C [3]: 71.9%; viability, T/C (second compound 0.1 µM, first compound 0.0999 µM): 73.5%; viability, T/C [4]: 65.6%; viability, T/C (second compound 0.316 µM, first compound 0.000999 µM): 28.8%; viability, T/C (second compound 0.316 µM, first compound 0.00316 µM): 27.8%; viability, T/C (second compound 0.316 µM, first compound 0.00999 µM): 27.1%; viability, T/C [5]: 22.5%; viability, T/C (second compound 0.316 µM, first compound 0.0999 µM): 29.8%; viability, T/C [6]: 31.5%; viability, T/C (second compound 1 µM, first compound 0.000999 µM): 7%; viability, T/C (second compound 1 µM, first compound 0.00316 µM): 5.78%; viability, T/C (second compound 1 µM, first compound 0.00999 µM): 5.4%; viability, T/C [7]: 5.4%; viability, T/C (second compound 1 µM, first compound 0.0999 µM): 5.1%; viability, T/C [8]: 5.12%; viability, T/C (second compound 3.16 µM, first compound 0.000999 µM): 2.09%; viability, T/C (second compound 3.16 µM, first compound 0.00316 µM): 2.13%; viability, T/C (second compound 3.16 µM, first compound 0.00999 µM): 2.38%; viability, T/C [9]: 2.9%; viability, T/C (second compound 3.16 µM, first compound 0.0999 µM): 3.1%; viability, T/C [10]: 2.73%; viability, T/C (second compound 10 µM, first compound 0.000999 µM): 1.74%; viability, T/C (second compound 10 µM, first compound 0.00316 µM): 2.35%; viability, T/C (second compound 10 µM, first compound 0.00999 µM): 2.39%; viability, T/C [11]: 2.68%; viability, T/C (second compound 10 µM, first compound 0.0999 µM): 2.08%; viability, T/C [12]: 2.52%

Which IC50 (second compound 0.0316 µM) does the source give for `C=CCn1c(=O)c2cnc(Nc3ccc(N4CCN(C)CC4)cc3)nc2n1-c1cccc(C(C)(C)O)n1` + Cc1cnc(CNC(=O)c2c(=O)c3ccc(N4CCCN(C)CC4)nc3n3c2sc2ccccc23)cn1 here?
The IC50 was 0.696 µM.

What about the IC50 (second compound 0.1 µM) of the same compound?
Its IC50 is 0.263 µM.

What about the IC50 (second compound 0.316 µM) of the same compound?
Its IC50 is under 0.0316 µM.

And the IC50 (second compound 1 µM)?
The IC50 was under 0.0316 µM.

And the IC50 (second compound 3.16 µM)?
Its IC50 is under 0.0316 µM.

What about the IC50 (second compound 10 µM) of the same compound?
Its IC50 is under 0.0316 µM.

What about the viability, T/C [1] of the same compound?
The viability, T/C was 92.5%.

And the viability, T/C (second compound 0.0316 µM, first compound 0.1 µM)?
The viability, T/C was 77.4%.

What about the viability, T/C [2] of the same compound?
Its viability, T/C is 76.8%.

What about the viability, T/C (second compound 0.0316 µM, first compound 1 µM) of the same compound?
Its viability, T/C is 38.5%.

And the viability, T/C (second compound 0.0316 µM, first compound 3.16 µM)?
The viability, T/C was 7.81%.

What about the viability, T/C (second compound 0.0316 µM, first compound 10 µM) of the same compound?
Its viability, T/C is 10.4%.

What about the viability, T/C [3] of the same compound?
The viability, T/C was 53.7%.

What about the viability, T/C (second compound 0.1 µM, first compound 0.1 µM) of the same compound?
The viability, T/C was 64.7%.

What about the viability, T/C [4] of the same compound?
The viability, T/C was 42.7%.

And the viability, T/C (second compound 0.1 µM, first compound 1 µM)?
The viability, T/C was 32%.

And the viability, T/C (second compound 0.1 µM, first compound 3.16 µM)?
The viability, T/C was 4.33%.

And the viability, T/C (second compound 0.1 µM, first compound 10 µM)?
The viability, T/C was 7.51%.

And the viability, T/C [5]?
The viability, T/C was 19.5%.

And the viability, T/C (second compound 0.316 µM, first compound 0.1 µM)?
Its viability, T/C is 21.2%.

What about the viability, T/C [6] of the same compound?
Its viability, T/C is 11.9%.

And the viability, T/C (second compound 0.316 µM, first compound 1 µM)?
The viability, T/C was 5.37%.

What about the viability, T/C (second compound 0.316 µM, first compound 3.16 µM) of the same compound?
The viability, T/C was 2.1%.

What about the viability, T/C (second compound 0.316 µM, first compound 10 µM) of the same compound?
Its viability, T/C is 3.41%.

What about the viability, T/C [7] of the same compound?
Its viability, T/C is 3.56%.

And the viability, T/C (second compound 1 µM, first compound 0.1 µM)?
The viability, T/C was 3.34%.

And the viability, T/C [8]?
The viability, T/C was 2.67%.

And the viability, T/C (second compound 1 µM, first compound 1 µM)?
The viability, T/C was 2.03%.

What about the viability, T/C (second compound 1 µM, first compound 3.16 µM) of the same compound?
Its viability, T/C is 1.76%.

What about the viability, T/C (second compound 1 µM, first compound 10 µM) of the same compound?
Its viability, T/C is 2.24%.

And the viability, T/C [9]?
Its viability, T/C is 2.07%.

What about the viability, T/C (second compound 3.16 µM, first compound 0.1 µM) of the same compound?
The viability, T/C was 2.26%.

And the viability, T/C [10]?
Its viability, T/C is 2.31%.

And the viability, T/C (second compound 3.16 µM, first compound 1 µM)?
Its viability, T/C is 1.3%.

And the viability, T/C (second compound 3.16 µM, first compound 3.16 µM)?
Its viability, T/C is 0.68%.

And the viability, T/C (second compound 3.16 µM, first compound 10 µM)?
Its viability, T/C is 1.5%.

What about the viability, T/C [11] of the same compound?
The viability, T/C was 0.17%.

What about the viability, T/C (second compound 10 µM, first compound 0.1 µM) of the same compound?
The viability, T/C was 0.27%.

And the viability, T/C [12]?
Its viability, T/C is 0.23%.

What about the viability, T/C (second compound 10 µM, first compound 1 µM) of the same compound?
Its viability, T/C is 0.2%.

What about the viability, T/C (second compound 10 µM, first compound 3.16 µM) of the same compound?
Its viability, T/C is 0.19%.

And the viability, T/C (second compound 10 µM, first compound 10 µM)?
The viability, T/C was 0.22%.
